In patent publication US9326972B2, “Use of phenylmethimazoles, methimazole derivatives, and tautomeric cyclic thiones for the treatment of autoimmune/inflammatory diseases associated with toll-like receptor overexpression” (Ohio University, priority 2004, dated 2016):
Read-outs that look alike come from different tables or passages of the source. Values belong to the compound of their own block, whether it stands above or below them.

Experiments:
[1] = test system: FRTL-5 cells; experiment: Effect of 2-aminopurine (PKR inhibitor) in dsRNA-transfected FRTL-5 cells; format: cell-based, rat; details: FRTL-5, 10 mM 2-AP
Description: FIG. 2. […] After total RNA purification, 20 μg of total RNA were analyzed with indicated radiolabeled cDNA probes. […] Cells were transfected Lipofectamine 2000 alone (L) or with the indicated amount of Poly (I:C) (RNA) or endotoxin-free E. coli DNA. After 12 and 24 hours, 20 μg of total RNA was analyzed with the indicated radiolabeled cDNA probes. […] In (C), the effect of 2-aminopurine (a PKR inhibitor) on transfected dsRNA-induced TLR3 mRNA levels was measured. Again cells were transfected with Lipofectamine 2000 alone or Lipofectamine with the indicated amount of Poly (I:C) or endotoxin-free E. coli DNA in the presence or absence of 10 mM 2-aminopurine. After the indicated incubation time, cells were harvested and 20 μg of total RNA was analyzed with the indicated radiolabeled cDNA probes. […] Data are representative of multiple experiments. In sum, dsRNA transfection is needed to increase gene expression of signals implicated in autoimmune-inflammatory diseases such as MHC genes and high levels of Type I interferons, not simply activation of TLR by incubating thyrocytes with dsRNA by dsRNA binding to TLR3 receptors. Moreover, despite increased PKR, the critical signal involved in TLR3/Type I IFN signaling by dsRNA transfection is not PKR mediated. […]

[2] = test system: C57BL/6J mice; experiment: LPS-induced endotoxic shock in C57BL/6J mice: survival and signs of shock; format: in vivo, mouse; details: for Signs of shock at 12 hours, % of Animals: LPS-challenged mice
[3] = test system: TLR3, MHC Class I, PKR, IP-10 mRNA in FRTL-5 cells; details: FRTL-5, 100 U/ml IFN
[4] = test system: ERK1/2 MAPK, ELK1; experiment: ERK1/2 MAPK phosphorylation and Elk1 transactivation in FRTL-5 thyrocytes; format: cell-based, rat; details: FRTL-5, pCMV-BD-Elk 1 and pFR-luc, 6 hrs
Description: Poly (I:C) (the dsRNA ligand commonly used as a test compound) activates the TLR3 mediated NF-κ β/Map kinase signal pathway in FRTL-5 thyrocytes. FRTL-5 cells were transiently transfected with 100 ng of luciferase reporter pNF-κB Luc and 2 ng of internal control phRL-Tk. After 36 h, cells were incubated with 100 μg/ml poly (I:C) or endotoxin-free E. coli DNA for 6 h. Measurements were made with the Dual Luciferase Assay System (Promega). Poly (I:C) increased TLR3 mediated NF-κB mediated luciferase activity (gene expression) 6 fold; dsDNA had no effect. Further support came from electrophoretic mobility shift analyses (EMSA). When FRTL-5 thyrocytes were incubated with 100 μg/ml poly (I:C), IL-1β, TNF-α or TPA, cells lysed after 1 h, and nuclear translocation of NF-κB measured. The poly (I:C) induced p50/p65 complex formation as measured by the presence of a specific new protein/DNA complex and its inhibition by anti-p50 and p65 antibodies, but not by anti-p52, c-rel and Rel B antibodies; the complex was also supershifted by anti-p50. […] Additionally, when FRTL-5 cells were co-transfected with pCMV-BD-Elk 1 and pFR-luc, then incubated with 100 μg/ml poly (I:C) or IL-1β for 6 hrs, ELK1 transactivation was increased 2-fold by both Poly (I:C) and IL-1β when measured with the Dual Luciferase Assay System (Promega). […]

[5] = test system: NF-κB; experiment: NF-κB Luc reporter gene in FRTL-5 thyrocytes; format: cell-based, rat; details: FRTL-5, pNF-κB Luc, 100 μg/ml, 6 h
Description: Poly (I:C) (the dsRNA ligand commonly used as a test compound) activates the TLR3 mediated NF-κ β/Map kinase signal pathway in FRTL-5 thyrocytes. FRTL-5 cells were transiently transfected with 100 ng of luciferase reporter pNF-κB Luc and 2 ng of internal control phRL-Tk. After 36 h, cells were incubated with 100 μg/ml poly (I:C) or endotoxin-free E. coli DNA for 6 h. Measurements were made with the Dual Luciferase Assay System (Promega). Poly (I:C) increased TLR3 mediated NF-κB mediated luciferase activity (gene expression) 6 fold; dsDNA had no effect. Further support came from electrophoretic mobility shift analyses (EMSA). When FRTL-5 thyrocytes were incubated with 100 μg/ml poly (I:C), IL-1β, TNF-α or TPA, cells lysed after 1 h, and nuclear translocation of NF-κB measured. The poly (I:C) induced p50/p65 complex formation as measured by the presence of a specific new protein/DNA complex and its inhibition by anti-p50 and p65 antibodies, but not by anti-p52, c-rel and Rel B antibodies; the complex was also supershifted by anti-p50. […] Additionally, when FRTL-5 cells were co-transfected with pCMV-BD-Elk 1 and pFR-luc, then incubated with 100 μg/ml poly (I:C) or IL-1β for 6 hrs, ELK1 transactivation was increased 2-fold by both Poly (I:C) and IL-1β when measured with the Dual Luciferase Assay System (Promega). NF-κB/MAP Kinase signals evoked by TLR3 binding dsRNA are only one portion of TLR3 functional expression.
Cells were co-transfected with ISRE-Luc and pRLTk-Int and then treated without (none) or with Poly I:C (100 μg/ml), LPS (100 ng/ml), IL-1β (10 ng/ml) TNF-α (25 ng/ml), IFN-β (100 U/ml) or IFN-γ (1000 U/ml) in the presence of DMSO (−) or C10 for 6 hours. Data were obtained using the Dual Luciferase Assay system. The effect on the ISRE element is not duplicated by an NF-κB reporter plasmid despite the similarity of the two elements: ([…])5 (SEQ ID NO:3) vs. ([…])5 (SEQ ID NO:4), respectively. Data are representative of multiple experiments.
Plasmids for Reporter Gene Assays. Human IRF-3 was amplified from human cDNA and cloned into pCR 2.1 by the TOPO/TA (Invitrogen, Carlsbad, Calif.) cloning method, and then sequenced. IRF-3 was then excised by EcoRI digestion and subcloned into pCMV-BD (Stratagene, La Jolla, Calif.) for use in transactivation assays. To construct IFN-β-luc the human IFN-β promoter sequence was amplified from human genomic DNA (Clontech, Palo Alto, Calif.)) using Ex Taq™ Polymerase (Takara, Madison, Wis.). The PCR fragment contained human IFN-β promoter sequence from −125 to +34 relative to the transcription start site (+1) and incorporated KpnI and XhoI restriction sites at the 5′ and 3′ ends, respectively. The primers were as follows: hIFN-β (−125) KpnI (5′-[…]-3′) (SEQ ID NO:9) and hIFN-β (+34) XhoI (5′-[…]-3′). (SEQ ID NO: 10) The fragment was digested with KpnI and XhoI then ligated into a similarly digested pGL3 Basic (Promega, Madison, Wis.) vector. The human MyD88 wild and dominant negative expression vectors were kindly donated by Dr. P. E. Auron. pFR-luc (5×Gal4 DNA binding domains and minimal TATA box), ISRE-Luc, NF-κB-luc and the Elk1 trans-Reporting System were purchased from Stratagene. pRL TK-Int was purchased from Promega.
Transient Expression Analysis. A DEAE procedure was used to transfect promoter-luciferase gene constructs and expression plasmids into FRTL-5 cells. Briefly, FRTL-5 cells were grown in 24-well plates to about 70% confluence, washed with 0.5 ml of serum-free culture medium (6H0 medium), then exposed to 125 μl of premade plasmid-DEAE mixture per well for 15 min at room temperature. The plasmid-DEAE mixture was prepared by incubating 100 ng of plasmid DNA, unless otherwise noted in individual experiments, with 3.125 μl of DEAE-Dextran (10 mg/ml) (Promega, Madison Wis.). FRTL-5 cells were incubated with this mixture for 2 hr at 37° C. in a CO2 incubator, before 2 ml of 6H5 medium was added. […]

[6] = LPS 20 mg/kg i/p, drug i/p 30 min before LPS, 8 mice per group
[7] = challenged with LPS first, treated after 12 hours when shock had appeared

Compound: Nc1ncc2[nH]cnc2n1 [Compound 2-AP, 2-aminopurine]
dsRNA-transfection-increased NF-κB p65/p50 complex formation (EMSA) [1]: strongly inhibited
dsRNA-transfection-induced increase in IFN-β mRNA levels [1]: did not inhibit

Compound: CNC[C@H](O)[C@@H](O)[C@H](O)[C@H](O)CO.Cc1c(Nc2ncccc2C(=O)O)cccc1C(F)(F)F [flunixin of meglumine]
Number of surviving mice, 1 week [2, 6]: 0
Number of surviving mice, 6 hrs [2, 6]: 8
Number of surviving mice, 12 hrs [2, 6]: 8
Number of surviving mice, 18 hrs [2, 6]: 4
Number of surviving mice, 36 hrs [2, 6]: 0
Signs of shock at 12 hours, % of Animals [2]: 100 % of Animals
Number of surviving mice, 1 week [2, 7]: 0
Number of surviving mice, 18 hrs [2, 7]: 0
Number of surviving mice, 36 hrs [2, 7]: 0

Compound: C[C@]12C=CC(=O)C=C1CC[C@@H]1[C@@H]2[C@@H](O)C[C@@]2(C)[C@H]1CC[C@]2(O)C(=O)CO [prednisolone]
Number of surviving mice, 1 week [2, 6]: 0
Number of surviving mice, 6 hrs [2, 6]: 8
Number of surviving mice, 12 hrs [2, 6]: 8
Number of surviving mice, 18 hrs [2, 6]: 3
Number of surviving mice, 36 hrs [2, 6]: 0
Signs of shock at 12 hours, % of Animals [2]: 100 % of Animals
Number of surviving mice, 1 week [2, 7]: 0
Number of surviving mice, 18 hrs [2, 7]: 1
Number of surviving mice, 36 hrs [2, 7]: 0

Compound: IFN-γ: a Type II IFN, from Biosource International
GAPDH mRNA, % of Control at 0 Time (±15%) ([3]; 1 hr): 100 % of Control at 0 Time
IP-10 mRNA, % of Control at 0 Time (±15%) ([3]; 1 hr): 100 % of Control at 0 Time
MHC Class I mRNA, % of Control at 0 Time (±15%) ([3]; 1 hr): 100 % of Control at 0 Time
PKR mRNA, % of Control at 0 Time (±15%) ([3]; 1 hr): 100 % of Control at 0 Time
TLR3 mRNA, % of Control at 0 Time (±15%) ([3]; 1 hr): 100 % of Control at 0 Time
GAPDH mRNA, % of Control at 0 Time (±15%) ([3]; 3 hr): 100 % of Control at 0 Time
IP-10 mRNA, % of Control at 0 Time (±15%) ([3]; 3 hr): 100 % of Control at 0 Time
MHC Class I mRNA, % of Control at 0 Time (±15%) ([3]; 3 hr): 100 % of Control at 0 Time
PKR mRNA, % of Control at 0 Time (±15%) ([3]; 3 hr): 100 % of Control at 0 Time
TLR3 mRNA, % of Control at 0 Time (±15%) ([3]; 3 hr): 100 % of Control at 0 Time
GAPDH mRNA, % of Control at 0 Time (±15%) ([3]; 6 hr): 100 % of Control at 0 Time
IP-10 mRNA, % of Control at 0 Time (±15%) ([3]; 6 hr): 100 % of Control at 0 Time
MHC Class I mRNA, % of Control at 0 Time (±15%) ([3]; 6 hr): 100 % of Control at 0 Time
PKR mRNA, % of Control at 0 Time (±15%) ([3]; 6 hr): 100 % of Control at 0 Time
TLR3 mRNA, % of Control at 0 Time (±15%) ([3]; 6 hr): 100 % of Control at 0 Time
GAPDH mRNA, % of Control at 0 Time (±15%) ([3]; 12 hr): 100 % of Control at 0 Time
IP-10 mRNA, % of Control at 0 Time (±15%) ([3]; 12 hr): 100 % of Control at 0 Time
MHC Class I mRNA, % of Control at 0 Time (±15%) ([3]; 12 hr): 100 % of Control at 0 Time
PKR mRNA, % of Control at 0 Time (±15%) ([3]; 12 hr): 100 % of Control at 0 Time
TLR3 mRNA, % of Control at 0 Time (±15%) ([3]; 12 hr): 100 % of Control at 0 Time

Compound: IL-1β: cytokine used as positive control
increase of ELK1 transactivation [4]: 2 fold

increase of NF-κB mediated luciferase activity [5]: 6 fold
Compound: Poly (I:C) [reference compound]
increase of ELK1 transactivation [4]: 2 fold
